Data as given in patent EP0092073A1, “Magnesium salt of chenodeoxycholic acid and ursodeoxycholic acid, the process for its preparation, and therapeutic compositions which contain it as active principle” (SCHWARZ ITALIA S.p.A., priority 1982, dated 1983).

Legend:
[1] = Hydrolysis by the gastric juice; details: prodrug supplying its two component acids
rat = test: Lethality and toxicity, endoperitoneal administration; assay type: in vivo; set-up: key to Toxic symptomatology Type: NN = no symptomatology; D = depression; details: for % mortality at the following times after administration 24 h / % mortality at the following times after administration 7 days / Toxic symptomatology Latency / Toxic symptomatology Type: endoperitoneal; for LD50 (mg/kg with reliability limits) 7 days after treatment: ip, probit method
Method: (§1) Unless otherwise specified, the research was carried out using: a) Mg-UCD capsules as such; b) the powdered contents of Mg-UCD capsules; CDCA (chenodeoxycholic acid) and UDCA (ursodeoxycholic acid) as pure substance which in all cases was partly dissolved and partly suspended under warm conditions (T = 30°C) in 10% gum arabic mucilage (so as to administer 10-40 ml of liquid per kg orally). In certain cases, namely in the experiments involving parenteral administration, the active principle of Mg-UCD, the chenodeoxycholic acid and ursodeoxycholic acid were dissolved in distilled water of slightly alkaline pH (5-10 ml/kg).
(§2) The generally acute lethality, toxicity and tolerability were determined by oral administration of the Mg-UCD (by gastric probe) in the Mus musculus, rat and dog. Animals of both sexes were used, none of which were pregnant. They were fasted for about 12 hours before treatment (but allowing them free access to water). The investigations were carried out using the Mg-UCD in powder form. Comparative investigations were carried out on the rat and Mus musculus using the active principle by endoperitoneal administration, and chenodeoxycholic acid and ursodeoxycholic acid by oral administration (using a gastric probe). Each dose was administered to 20 rats or Mus musculus (10 male and 10 female) and to eight dogs (4 male and 4 female). The animals were observed attentively during the 7 days following administration, and any lethality, toxic symptoms, disturbances, functional variations determinable with the eye, behaviour etc. were noted.
(§3) The LD50 was determined 7 days after administration using the probit method.

Mus musculus = test: as above; assay type: in vivo; set-up: key to Toxic symptomatology Type: NN = no symptomatology; D = depression; details: for % mortality at the following times after administration 24 h / % mortality at the following times after administration 7 days / Toxic symptomatology Latency / Toxic symptomatology Type: endoperitoneal; for LD50 (mg/kg with reliability limits) 7 days after treatment: ip, probit method
Method: as §1, §2, §3

Solubility = assay type: physicochemical
dog = test: Acute lethality and toxicity, oral administration (gastric probe); assay type: in vivo; set-up: key to Toxic symptomatology Type: NN = no symptomatology; D = depression; details: for % mortality at following times after administration 24 h / % mortality at following times after administration 7 days / Toxic symptomatology Type / Toxic symptomatology Latency: oral; for LD50 (mg/kg with reliability limits) 7 days after treatment: po, also printed as greater than 600 Dts/kg

Substance: double magnesium salt of chenodeoxycholic acid and ursodeoxycholic acid [Mg-UCD]
- hydrolysis by the gastric juice [1]: hydrolysed slowly
- % mortality at the following times after administration 24 h (rat; Rat F, 1000 mg/kg): 0%
- % mortality at the following times after administration 7 days (rat; Rat F, 1000 mg/kg): 0%
- Toxic symptomatology Latency (rat; Rat F, 1000 mg/kg): 1-2 min
- Toxic symptomatology Type (rat; Rat F, 1000 mg/kg): D
- % mortality at the following times after administration 24 h (rat; Rat F, 2000 mg/kg): 10%
- % mortality at the following times after administration 7 days (rat; Rat F, 2000 mg/kg): 10%
- Toxic symptomatology Latency (rat; Rat F, 2000 mg/kg): 1-2 min
- Toxic symptomatology Type (rat; Rat F, 2000 mg/kg): D
- % mortality at the following times after administration 24 h (rat; Rat F, 4000 mg/kg): 60%
- % mortality at the following times after administration 7 days (rat; Rat F, 4000 mg/kg): 60%
- Toxic symptomatology Latency (rat; Rat F, 4000 mg/kg): 1-2 min
- Toxic symptomatology Type (rat; Rat F, 4000 mg/kg): D
- LD50 (mg/kg with reliability limits) 7 days after treatment (rat; Rat F): 2449 (2063-2906) mg/kg
- % mortality at the following times after administration 24 h (rat; Rat M, 1000 mg/kg): 0%
- % mortality at the following times after administration 7 days (rat; Rat M, 1000 mg/kg): 0%
- Toxic symptomatology Latency (rat; Rat M, 1000 mg/kg): 1-2 min
- Toxic symptomatology Type (rat; Rat M, 1000 mg/kg): D
- % mortality at the following times after administration 24 h (rat; Rat M, 2000 mg/kg): 10%
- % mortality at the following times after administration 7 days (rat; Rat M, 2000 mg/kg): 10%
- Toxic symptomatology Latency (rat; Rat M, 2000 mg/kg): 1-2 min
- Toxic symptomatology Type (rat; Rat M, 2000 mg/kg): D
- % mortality at the following times after administration 24 h (rat; Rat M, 4000 mg/kg): 70%
- % mortality at the following times after administration 7 days (rat; Rat M, 4000 mg/kg): 70%
- Toxic symptomatology Latency (rat; Rat M, 4000 mg/kg): 1-2 min
- Toxic symptomatology Type (rat; Rat M, 4000 mg/kg): D
- LD50 (mg/kg with reliability limits) 7 days after treatment (rat; Rat M): 2288 (1902-2751) mg/kg
- % mortality at the following times after administration 24 h (Mus musculus; M. musculus F, 1000 mg/kg): 0%
- % mortality at the following times after administration 7 days (Mus musculus; M. musculus F, 1000 mg/kg): 0%
- Toxic symptomatology Latency (Mus musculus; M. musculus F, 1000 mg/kg): 1-2 min
- Toxic symptomatology Type (Mus musculus; M. musculus F, 1000 mg/kg): D
- % mortality at the following times after administration 24 h (Mus musculus; M. musculus F, 2000 mg/kg): 10%
- % mortality at the following times after administration 7 days (Mus musculus; M. musculus F, 2000 mg/kg): 10%
- Toxic symptomatology Latency (Mus musculus; M. musculus F, 2000 mg/kg): 1-2 min
- Toxic symptomatology Type (Mus musculus; M. musculus F, 2000 mg/kg): D
- % mortality at the following times after administration 24 h (Mus musculus; M. musculus F, 4000 mg/kg): 70%
- % mortality at the following times after administration 7 days (Mus musculus; M. musculus F, 4000 mg/kg): 70%
- Toxic symptomatology Latency (Mus musculus; M. musculus F, 4000 mg/kg): 1-2 min
- Toxic symptomatology Type (Mus musculus; M. musculus F, 4000 mg/kg): D
- LD50 (mg/kg with reliability limits) 7 days after treatment (Mus musculus; M. musculus F): 2455 (1984-3039) mg/kg
- % mortality at the following times after administration 24 h (Mus musculus; M. musculus M, 1000 mg/kg): 0%
- % mortality at the following times after administration 7 days (Mus musculus; M. musculus M, 1000 mg/kg): 0%
- Toxic symptomatology Latency (Mus musculus; M. musculus M, 1000 mg/kg): 1-2 min
- Toxic symptomatology Type (Mus musculus; M. musculus M, 1000 mg/kg): D
- % mortality at the following times after administration 24 h (Mus musculus; M. musculus M, 2000 mg/kg): 10%
- % mortality at the following times after administration 7 days (Mus musculus; M. musculus M, 2000 mg/kg): 10%
- Toxic symptomatology Latency (Mus musculus; M. musculus M, 2000 mg/kg): 1-2 min
- Toxic symptomatology Type (Mus musculus; M. musculus M, 2000 mg/kg): D
- % mortality at the following times after administration 24 h (Mus musculus; M. musculus M, 4000 mg/kg): 60%
- % mortality at the following times after administration 7 days (Mus musculus; M. musculus M, 4000 mg/kg): 60%
- Toxic symptomatology Latency (Mus musculus; M. musculus M, 4000 mg/kg): 1-2 min
- Toxic symptomatology Type (Mus musculus; M. musculus M, 4000 mg/kg): D
- LD50 (mg/kg with reliability limits) 7 days after treatment (Mus musculus; M. musculus M): 2455 (1984-3039) mg/kg
- Solubility (Solubility; in alcohol): fairly soluble in alcohol
- Solubility (Solubility; in water, listed as Mg salt): practically insoluble in water
- Solubility (Solubility; in water, listed as double salt): insoluble in water
- % mortality at following times after administration 24 h (dog; Dog F, 250 mg/kg (60 Dts/kg)): 0%
- % mortality at following times after administration 7 days (dog; Dog F, 250 mg/kg (60 Dts/kg)): 0%
- Toxic symptomatology Type (dog; Dog F, 250 mg/kg (60 Dts/kg)): NN
- % mortality at following times after administration 24 h (dog; Dog F, 2500 mg/kg (600 Dts/kg)): 0%
- % mortality at following times after administration 7 days (dog; Dog F, 2500 mg/kg (600 Dts/kg)): 0%
- Toxic symptomatology Latency (dog; Dog F, 2500 mg/kg (600 Dts/kg)): 5-10 min
- Toxic symptomatology Type (dog; Dog F, 2500 mg/kg (600 Dts/kg)): D
- LD50 (mg/kg with reliability limits) 7 days after treatment (dog; Dog F): greater than 2500 mg/kg (greater than 600 Dts/kg)
- % mortality at following times after administration 24 h (dog; Dog M, 250 mg/kg (60 Dts/kg)): 0%
- % mortality at following times after administration 7 days (dog; Dog M, 250 mg/kg (60 Dts/kg)): 0%
- Toxic symptomatology Type (dog; Dog M, 250 mg/kg (60 Dts/kg)): NN
- % mortality at following times after administration 24 h (dog; Dog M, 2500 mg/kg (600 Dts/kg)): 0%
- % mortality at following times after administration 7 days (dog; Dog M, 2500 mg/kg (600 Dts/kg)): 0%
- Toxic symptomatology Latency (dog; Dog M, 2500 mg/kg (600 Dts/kg)): 5-10 min
- Toxic symptomatology Type (dog; Dog M, 2500 mg/kg (600 Dts/kg)): D
- LD50 (mg/kg with reliability limits) 7 days after treatment (dog; Dog M): greater than 2500 mg/kg (greater than 600 Dts/kg)
- any case of death or any significant toxic symptomatology (dog; dog, oral (gastric probe), 7 days following treatment, individual doses up to 2500 mg/kg of active principle (600 Dts/kg)): does not show
